Reference: ChEMBL document CHEMBL5705903, “A DNA Hypomethylation Signature Predicts Antitumor Activity of LSD1 Inhibitors in SCLC” (Cancer Cell, 2015)
Active and inactive are the calls of the source. The calls are words filed in the database; no cut-off is given here.

Experiments:
[1] = Dose normalized AUC (0 to infinity) in mouse at 5.5 mg/kg, ip by HPLC/MS/MS analysis; assay type: ADME, organism-based; conditions: in vivo
[2] = biological target: T1, 5-hydroxytryptamine receptor 2C (Homo sapiens, UniProt P28335); assay: Agonist activity at 5-HT2C receptor (unknown origin); assay type: functional
T1 sequence (P28335 whole entry): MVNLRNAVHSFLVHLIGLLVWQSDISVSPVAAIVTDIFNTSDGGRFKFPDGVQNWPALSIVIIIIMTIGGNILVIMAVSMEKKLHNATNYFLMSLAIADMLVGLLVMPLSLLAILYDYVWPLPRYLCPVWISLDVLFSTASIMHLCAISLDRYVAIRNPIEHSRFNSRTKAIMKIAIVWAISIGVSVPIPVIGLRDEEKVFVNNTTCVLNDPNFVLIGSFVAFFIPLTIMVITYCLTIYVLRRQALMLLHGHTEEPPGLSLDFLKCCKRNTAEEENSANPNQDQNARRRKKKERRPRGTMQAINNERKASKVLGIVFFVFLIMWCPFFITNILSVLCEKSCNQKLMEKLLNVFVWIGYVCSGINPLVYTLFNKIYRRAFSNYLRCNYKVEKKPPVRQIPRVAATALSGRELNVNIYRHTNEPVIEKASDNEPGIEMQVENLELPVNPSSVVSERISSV

Histamine H1 receptor = Histamine H1 receptor (Homo sapiens, UniProt P35367); assay: Antagonist activity at Histamine H1 receptor (unknown origin); assay type: functional
[3] = biological target: Kappa-type opioid receptor (Homo sapiens, UniProt P41145); assay: Agonist activity at KOR (unknown origin); assay type: functional
[4] = biological target: T2, 5-hydroxytryptamine receptor 1B (Homo sapiens, UniProt P28222); assay: Agonist activity at 5-HT1B receptor (unknown origin); assay type: functional
[5] = Inhibition of COX (unknown origin); set-up: species or system Homo sapiens
[6] = biological target: Solute carrier organic anion transporter family member 1B1 (Homo sapiens, UniProt Q9Y6L6); assay: Inhibition of OATP1B1 (unknown origin)
[7] = biological target: Serotonin 3 (5-HT3) receptor; assay: Inhibition of 5-HT3 receptor (unknown origin); assay type: protein-complex assay, Homo sapiens
[8] = Inhibition of AChR receptor (unknown origin); set-up: species or system Homo sapiens
[9] = biological target: Alpha-1B adrenergic receptor (Homo sapiens, UniProt P35368); assay: Agonist activity at Adrenergic a1B receptor (unknown origin); assay type: functional
[10] = biological target: T2, 5-hydroxytryptamine receptor 1B; assay: Antagonist activity at 5-HT1B (unknown origin); assay type: functional
[11] = Effect on cleaved PARP level in human NCI-H524 cells assessed as fold change at 100 nM measured after 7 days by Western blot analysis (reference value: 1.00); assay type: functional; conditions: time 7 day
[12] = biological target: Lysine-specific histone demethylase 1A (Homo sapiens, UniProt O60341); assay: Binding affinity to LSD1 (unknown origin) using H3K4me2 as substrate assessed as apparent inhibition constant by HRP-coupled amplex red assay; conditions: read-out: Ki(app)
[13] = Dose normalized AUC (0 to last) in mouse blood at 5 mg/kg, po by HPLC/MS/MS analysis; assay type: ADME, organism-based; conditions: in vivo
[14] = AUC (0 to infinity) in mouse blood at 5 mg/kg, po by HPLC/MS/MS analysis; assay type: ADME, organism-based
[15] = Effect on cleaved PARP level in human NCI-H2171 cells assessed as relative expression at 1000 nM measured after 14 days by Western blot analysis (reference value: 0.01); assay type: functional; conditions: time 14 day
[16] = Effect on cleaved PARP level in human NCI-H1694 cells assessed as relative expression at 1000 nM measured after 7 days by Western blot analysis (reference value: 0.25); assay type: functional; conditions: time 7 day
[17] = Antitumor activity against human PDX L44 cells xenografted in mouse assessed as tumor growth inhibition at 1.5 mg/kg administered daily measured for 30 days relative to control; assay type: functional; conditions: PDX LX44, 720 h, time 30 day, read-out: TGI
[18] = Effect on cleaved PARP level in human NCI-H2171 cells assessed as fold change at 100 nM measured after 7 days by Western blot analysis (reference value: 1.00); assay type: functional; conditions: time 7 day
[19] = Effect on cleaved PARP level in human NCI-H524 cells assessed as fold change at 100 nM measured after 10 days by Western blot analysis (reference value: 1.00); assay type: functional; conditions: time 10 day
[20] = Effect on cleaved PARP level in human NCI-H2171 cells assessed as fold change at 100 nM measured after 10 days by Western blot analysis (reference value: 1.00); assay type: functional; conditions: time 10 day
COLO-668 = assay: Effect on NCAM gene expression in human COLO-668 cells at 1 uM measured after 4 days by qRT-PCR analysis; assay type: functional, cell-based; conditions: time 4.0 day
[21] = Effect on cleaved PARP level in human NCI-H1694 cells assessed as relative expression at 100 nM measured after 7 days by Western blot analysis (reference value: 0.25); assay type: functional; conditions: time 7 day
NCI-H510A = assay: Effect on NSE gene expression in human NCI-H510A cells at 1 uM measured after 4 to 7 days by qRT-PCR analysis; assay type: functional, cell-based; conditions: time 4-7 day
[22] = Toxicity in dog assessed as congestion in lymphoid organs measured for 28 days; set-up: species or system Canis lupus familiaris; conditions: in vivo, 672 h, time 28 day
[23] = Effect on cleaved PARP level in human COLO-668 cells assessed as fold change at 100 nM measured after 14 days by Western blot analysis (reference value: 1.00); assay type: functional; conditions: time 14 day
[24] = Effect on cleaved PARP level in human NCI-H510 cells assessed as relative expression at 1000 nM measured after 7 days by Western blot analysis (reference value: 0.24); assay type: functional, NCI-H510A; conditions: time 7 day
[25] = Effect on cleaved PARP level in human NCI-H526 cells assessed as relative expression at 10 nM measured after 7 days by Western blot analysis (reference value: 0.57); assay type: functional; conditions: time 7 day
[26] = Effect on cleaved PARP level in human NCI-H524 cells assessed as fold change at 10 nM measured after 7 days by Western blot analysis (reference value: 1.00); assay type: functional; conditions: time 7 day
[27] = Toxicity in rat assessed as declining clinical condition measured for 28 days; conditions: in vivo, 672 h, time 28 day
SHP77 = assay: Effect on NSE gene expression in human SHP77 cells at 1 uM measured after 4 to 7 days by qRT-PCR analysis; assay type: functional, cell-based; conditions: time 4-7 day
[28] = Effect on cleaved PARP level in human NCI-H1417 cells assessed as fold change at 10 nM measured after 7 days by Western blot analysis (reference value: 1.00); assay type: functional; conditions: time 7 day
[29] = Effect on cleaved PARP level in human NCI-H69 cells assessed as fold change at 1000 nM measured after 7 days by Western blot analysis (reference value: 1.00); assay type: functional; conditions: time 7 day
NCI-H526 = assay: In vivo inhibition of LSD1 in human NCI-H526 cells xenografted in nude mouse assessed as change in KIAA1644 gene expression administrated daily for 5 days by qRT-PCR analysis; assay type: functional, organism-based; conditions: dose 0.02-135 mg/kg, time 5.0 day
[30] = Effect on cleaved PARP level in human NCI-H510 cells assessed as relative expression at 1000 nM measured after 10 days by Western blot analysis (reference value: 0.02); assay type: functional, NCI-H510A; conditions: time 10 day

T2 sequence (P28222 whole entry): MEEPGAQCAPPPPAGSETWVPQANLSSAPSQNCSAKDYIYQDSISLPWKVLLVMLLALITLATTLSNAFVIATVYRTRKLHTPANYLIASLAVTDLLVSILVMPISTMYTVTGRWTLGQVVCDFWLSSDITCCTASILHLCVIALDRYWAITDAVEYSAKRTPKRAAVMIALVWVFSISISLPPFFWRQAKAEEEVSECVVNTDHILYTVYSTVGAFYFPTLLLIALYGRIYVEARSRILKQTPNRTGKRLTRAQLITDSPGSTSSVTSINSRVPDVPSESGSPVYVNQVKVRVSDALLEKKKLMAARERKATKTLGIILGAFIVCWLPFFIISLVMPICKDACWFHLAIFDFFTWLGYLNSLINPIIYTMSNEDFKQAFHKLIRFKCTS
Kappa-type opioid receptor, sequence (P41145 whole entry): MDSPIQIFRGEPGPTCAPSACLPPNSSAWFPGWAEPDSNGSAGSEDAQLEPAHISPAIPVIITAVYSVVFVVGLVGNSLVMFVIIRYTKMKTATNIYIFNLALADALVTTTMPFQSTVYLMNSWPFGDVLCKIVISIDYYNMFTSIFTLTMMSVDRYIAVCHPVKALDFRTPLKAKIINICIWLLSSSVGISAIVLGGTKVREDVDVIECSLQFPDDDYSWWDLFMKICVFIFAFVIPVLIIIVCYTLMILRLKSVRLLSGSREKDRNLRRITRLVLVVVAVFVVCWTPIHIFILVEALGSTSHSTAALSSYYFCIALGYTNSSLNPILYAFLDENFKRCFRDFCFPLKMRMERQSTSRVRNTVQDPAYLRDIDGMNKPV
Alpha-1B adrenergic receptor, sequence (P35368 whole entry): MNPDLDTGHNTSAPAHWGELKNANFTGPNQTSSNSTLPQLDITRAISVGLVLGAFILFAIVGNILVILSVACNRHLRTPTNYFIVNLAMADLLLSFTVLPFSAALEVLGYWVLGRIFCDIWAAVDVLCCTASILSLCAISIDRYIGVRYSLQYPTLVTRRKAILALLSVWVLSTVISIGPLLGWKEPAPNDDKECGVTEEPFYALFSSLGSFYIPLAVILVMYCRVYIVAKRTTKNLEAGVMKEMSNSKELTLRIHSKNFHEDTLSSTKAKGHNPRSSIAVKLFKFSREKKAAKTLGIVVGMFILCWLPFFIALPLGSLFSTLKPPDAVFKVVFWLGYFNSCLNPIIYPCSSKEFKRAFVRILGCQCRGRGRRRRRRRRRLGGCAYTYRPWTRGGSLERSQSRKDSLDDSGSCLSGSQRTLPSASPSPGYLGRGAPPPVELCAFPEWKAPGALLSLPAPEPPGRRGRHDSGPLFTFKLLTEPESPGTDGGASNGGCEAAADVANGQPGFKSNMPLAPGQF
Solute carrier organic anion transporter family member 1B1, sequence (Q9Y6L6 whole entry): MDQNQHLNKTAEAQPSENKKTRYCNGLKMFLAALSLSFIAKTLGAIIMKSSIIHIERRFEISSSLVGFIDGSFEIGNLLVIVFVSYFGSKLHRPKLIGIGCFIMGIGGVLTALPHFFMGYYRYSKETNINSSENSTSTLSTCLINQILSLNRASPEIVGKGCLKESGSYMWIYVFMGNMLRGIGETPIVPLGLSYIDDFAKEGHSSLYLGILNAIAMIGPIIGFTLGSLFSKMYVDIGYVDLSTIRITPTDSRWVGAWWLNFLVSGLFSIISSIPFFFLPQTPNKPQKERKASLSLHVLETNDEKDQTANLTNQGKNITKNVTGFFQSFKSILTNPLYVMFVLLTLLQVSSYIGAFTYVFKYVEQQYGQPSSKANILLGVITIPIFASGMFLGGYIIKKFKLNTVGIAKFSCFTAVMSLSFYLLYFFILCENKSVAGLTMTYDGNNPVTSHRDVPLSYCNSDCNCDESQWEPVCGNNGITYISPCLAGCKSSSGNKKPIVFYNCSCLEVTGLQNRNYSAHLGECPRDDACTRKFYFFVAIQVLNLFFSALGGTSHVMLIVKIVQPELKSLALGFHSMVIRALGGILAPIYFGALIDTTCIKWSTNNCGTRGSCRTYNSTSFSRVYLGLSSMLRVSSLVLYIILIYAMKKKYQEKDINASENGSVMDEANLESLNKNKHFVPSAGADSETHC
Histamine H1 receptor, sequence (P35367 whole entry): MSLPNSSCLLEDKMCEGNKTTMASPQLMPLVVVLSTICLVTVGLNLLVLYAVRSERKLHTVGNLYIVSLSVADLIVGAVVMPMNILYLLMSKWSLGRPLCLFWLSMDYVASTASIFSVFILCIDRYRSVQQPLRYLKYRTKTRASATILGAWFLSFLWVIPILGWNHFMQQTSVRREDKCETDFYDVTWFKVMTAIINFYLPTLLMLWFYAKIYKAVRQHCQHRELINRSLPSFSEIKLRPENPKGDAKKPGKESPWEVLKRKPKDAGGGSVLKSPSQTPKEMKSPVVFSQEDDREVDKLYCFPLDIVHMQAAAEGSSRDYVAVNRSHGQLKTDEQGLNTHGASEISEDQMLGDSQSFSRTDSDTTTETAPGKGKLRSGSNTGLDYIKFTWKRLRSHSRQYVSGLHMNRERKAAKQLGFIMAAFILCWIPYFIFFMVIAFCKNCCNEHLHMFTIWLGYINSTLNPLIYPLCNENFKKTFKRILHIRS

c1ccc([C@@H]2C[C@H]2NC2CCNCC2)cc1
AUC/dose [1]: 172 kg·ng·h/mL/mg | EC50 [2]: > 25 µM | EC50 (Histamine H1 receptor): > 25 µM | EC50 [3]: > 100 µM | EC50 [4]: 5 µM | IC50 [5]: > 100 µM | IC50 [6]: > 30 µM | IC50 [7]: > 30 µM | IC50 [8]: > 50 µM | EC50 [9]: > 25 µM | EC50 [10]: > 100 µM

O=C(O)c1ccc(CN2CCC(CN[C@@H]3C[C@H]3c3ccccc3)CC2)cc1 [GSK2879552]
fold change (FC) [11]: 0.95 | Ki [12]: 1700 nM | AUClast/dose [13]: 171 ng·h/mL/mg/kg | AUC(0-inf) [14]: 903 ng·h/mL | Activity [15]: 0.02 | Activity [16]: 0.36 | inhibition in vivo at 1.5 mg/kg [17]: 69% | EC50 [2]: > 40 µM | fold change (FC) [18]: 1.71 | EC50 (Histamine H1 receptor): > 40 µM | EC50 [3]: > 100 µM | fold change (FC) [19]: 0.71 | EC50 [4]: > 32 µM | fold change (FC) [20]: 1.2 | Activity (COLO-668): inactive | Activity [21]: 0.28 | IC50 [5]: 25 µM | Activity (NCI-H510A): inactive | IC50 [6]: > 30 µM | IC50 [7]: > 30 µM | IC50 [8]: > 50 µM | EC50 [9]: > 40 µM | Activity [22]: Toxic | fold change (FC) [23]: 0.25 | Activity [24]: 0.48 | Activity [25]: 0.48 | fold change (FC) [26]: 0.99 | Activity [27]: Toxic | EC50 [10]: > 30 µM | Activity (SHP77): inactive | fold change (FC) [28]: 1.53 | fold change (FC) [29]: 2.21 | inhibition (NCI-H526): Dose-Dependent Effect | Activity [30]: 0.23
